Assay results: US20070232594A1, “Aromatic amide derivatives, medicinal compositions containing the same, medical uses of both” (priority 2004, published 2007)

Assays:
[1] = test system: anesthetized rats infused with hypotonic solution; assay: Antidiuretic effect on diuresis induced by hypotonic solution in anesthetized rats; type: in vivo, rat; details: 10 μg/kg intravenously
Description: The Study of Antidiuretic Effect-the Confirmation Study of Antidiuretic Effect on the Diuretic Activity Induced by Loading Hypotonic Solution in the Anesthetized Rats Infused with Hypotonic Solution
It has been reported that plasma AVP level was decreased with intravenous infusion of hypotonic solution (J. Endocrinol., Vol. 141, pp. 59-67, 1994). The antidiuretic effect of the test compounds in the rats induced a diuretic condition was determined by the method as reported by Angchanpen et al (Br. J. Pharmacol., Vol. 93, pp. 151-155, 1988). The test compounds were dissolved in dimethylsulfoxide at 10 mM, and used in the study. Male SD rats (200-400 g weight) were anesthetized with 100 mg/kg of Inactin (SIGMA) intraperitonealy and each cannula was inserted into trachea, jugular vein, bladder and femoral vein, respectively. […] The urine volume obtained via cannula inserted into bladder was measured every 10 minutes. […]
The average of urine volume measured for three 10 minutes periods before the administration was defined as the pre value (0%). After the administration of the test compounds, the urine volume was measured every 10 minutes. The antidiuretic effect, namely the decrease of the urine volume, induced by administration of test compounds was calculated from the decreasing rate of urine volume (minus %) against the pre value. […]

[2] = target: T1, cytochrome P-450 (CYP3A4) (Homo sapiens, UniProt P08684); assay: Inhibitory effect on cytochrome P-450 (CYP3A4) from human liver microsome; type: in vitro ADME; details: test compound 10 μM, testosterone 50 μM substrate, 5 minutes at 37° C., rate of substrate metabolism versus control
T1 construct: human liver microsome (1.0 mg/mL) as enzyme; from tissue; host or cells: human liver microsomes
T1 sequence (P08684 whole entry): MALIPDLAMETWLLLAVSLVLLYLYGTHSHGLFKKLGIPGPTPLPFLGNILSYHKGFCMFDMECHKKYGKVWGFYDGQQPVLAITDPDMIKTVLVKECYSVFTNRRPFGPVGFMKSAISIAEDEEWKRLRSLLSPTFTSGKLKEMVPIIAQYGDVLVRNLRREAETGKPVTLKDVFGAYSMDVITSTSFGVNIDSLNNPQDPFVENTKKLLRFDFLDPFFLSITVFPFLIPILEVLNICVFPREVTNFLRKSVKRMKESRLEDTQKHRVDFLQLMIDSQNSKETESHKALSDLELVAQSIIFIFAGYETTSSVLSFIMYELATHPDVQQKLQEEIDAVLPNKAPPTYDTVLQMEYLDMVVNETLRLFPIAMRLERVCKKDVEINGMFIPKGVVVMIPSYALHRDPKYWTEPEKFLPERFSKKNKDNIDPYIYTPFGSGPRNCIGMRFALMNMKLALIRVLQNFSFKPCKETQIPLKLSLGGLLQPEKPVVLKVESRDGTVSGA
Description: The Experiment for Inhibitory Effect on Cytochrome P-450 (CYP3A4) Originated from Human Liver Microsome
The test compounds dissolved in dimethylsulfoxide at 10 mM were added to 0.1 M phosphate buffer (pH7.4) containing 10 mM MgCl2, and human liver microsome (1.0 mg/mL) as enzyme and testosterone (50 μM) as a substrate for CYP3A4 were added to this 0.1M phosphate buffer in order to prepare phosphate buffer solution of the test compounds at final concentration of 10 μM (final volume 0.2 mL). The reaction was started by the addition of NADPH (1.0 mg/mL) and then incubated for 5 minutes at 37° C. After acetonitrile was added to stop the reaction, the residual concentration of testosterone was determined using LC/MS/MS, and calculated the rate of metabolism of substrate from the ratio of content of testosterone at end to that at start (A value). As the same way, the experiment except for the test compounds was carried out and remaining testosterone was determined in the same way as mentioned above. The rate of metabolism of substrate was calculated from the ratio of content of testosterone at end to that at start of the reaction (B value) as control value. The ratio of A value against B value was determined as a degree of incidence of test compounds on metabolic rate, which was shown in Table 70.

[3] = test system: Male SD rats; assay: Acute toxicity test; type: in vivo, rat; details: 3 mg/kg intravenously, N=3, one hour observation, urethane anesthesia
Description: Male SD rats (250-300 g weight) were divided into some groups (N=3) and each cannula was inserted into trachea and jugular vein under anesthesia with urethane (1.5 g/kg, subcutaneously). The test compound solutions were prepared with an adequate solvent to be a dosage of 3 mg/kg, and then the solution was administered intravenously via cannula. The survival rate was determined for an hour experimental period.

[4] = target: T2, human V2 receptor (Homo sapiens, UniProt P30518); assay: Binding experiment for human V2 receptor ([3H]-AVP displacement, CHO cell membranes); design: purchased Packard BioScience; host or cells: CHO cells (membranes); details: [3H]-AVP binding, CHO cell membranes expressing human V2 receptor; Ki calculated from IC50 and Kd
T2 sequence (P30518 whole entry): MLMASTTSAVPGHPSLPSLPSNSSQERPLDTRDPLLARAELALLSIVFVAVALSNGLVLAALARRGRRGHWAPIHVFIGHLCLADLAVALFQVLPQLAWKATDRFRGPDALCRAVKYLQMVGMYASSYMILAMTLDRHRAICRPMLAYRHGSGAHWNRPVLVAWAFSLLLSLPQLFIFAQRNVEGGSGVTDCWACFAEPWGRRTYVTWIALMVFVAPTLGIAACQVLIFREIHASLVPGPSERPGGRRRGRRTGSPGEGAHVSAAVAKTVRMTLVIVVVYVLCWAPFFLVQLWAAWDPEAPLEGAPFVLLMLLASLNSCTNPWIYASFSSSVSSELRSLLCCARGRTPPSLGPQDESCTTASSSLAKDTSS
Description: Binding Experiment for Human V2 Receptor
Test compounds were dissolved in dimethylsulfoxide at 10 mM. The affinities for human V2 receptor were determined by an inhibition against [^3H]-Arginie vasopressin (AVP) (Perkin elmer Japan) binding to the human V2 receptor using CHO cell membranes expressed human V2 receptor (Packard BioScience). Cell membranes suspension was prepared by suspending the cell membranes as mentioned above with Assay buffer (50 mM Tris-HCl, 10 mM MgCl2, 0.1% bovine serum albumin (BSA), pH7.4) at an adequate protein concentration. The test compound solutions were prepared by diluting the dimethylsulfoxide solution of the test compound as mentioned above with Assay buffer at final concentration of 10 nM, 100 nM, 1 μM and 10 μM (in this diluting procedure, concentration of dimethylsulfoxide was adjusted to be 0.5% at each concentration of the test compound). Cell membranes suspension (50 μL), 3 nM of [^3H]-AVP (50 μL), Assay buffer (50 μL) and the solution of the test compounds at each concentrations (50 μL) were added to MultiScreen 96-well plate (Millipore) and the mixture was incubated for an hour at 25° C. with shaking slightly. After filtration by aspiration, the plate was washed with ice-cold washing buffer (50 mM Tris-HCl, 10 mM MgCl2, pH 7.4) for three times. After dry the plate, Microscinti-20 (Packard) was added to each well and the plate was shaken slightly, and then radioactivities of each well were counted with a micro plate scintillation counter, TopCount (Packard). Non-specific binding of [^3H]-AVP for cell membranes was determined by adding 1 μM of cold AVP substituted for the test compounds. The concentration of the test compounds inhibiting the specific binding of [^3H]-AVP by 50% was considered as IC50 value.
The Calculation of Kd Value of [^3H]-AVP for the Cell Membranes Expressed Human V2 Receptor
The suspension of the cell membranes expressed human V2 receptor was prepared with diluting adequately with the Assay buffer as mentioned above. In consideration for the radioactivity of [^3H]-AVP, six different concentrations (final concentration; ranging from approximately 100 pM to 6000 pM) of [^3H]-AVP were prepared by serial dilution by from 2 to 3 fold with the Assay buffer. The cell membranes suspension (50 μL), each concentrations of [^3H]-AVP (50 μL), the Assay buffer (50 μL) and 1 μM of cold AVP or the Assay buffer were added to MultiScreen 96-well plate (Millipore) and the mixture was incubated for an hour at 25° C. with shaking slightly. The specific bindings (Bvalue) of each concentrations of the [^3H]-AVP were determined by the method as mentioned above and free-bound contents (F value) at each concentrations of the [^3H]-AVP were determined. The Kd value was calculated by Scatchard analysis using the B value and the F value.

[5] = target: T2, human V2 receptor; assay: Study to confirm the agonism of human V2 receptor (intracellular Ca2+, HEK293 cells coexpressing human V2 receptor and Gqs chimeric protein); type: cell-based; design: expressed in transfected cells; host or cells: HEK293 cells (American Type Culture Collection), transient transfection with pCI-neo/hV2 and pLEC-Gqs5; details: for EC50: intracellular Ca2+, HEK293 cells coexpressing human V2 receptor and Gqs; for IA (intrinsic activity): maximum response relative to AVP = 1
Description: The Study to Confirm the Agonism of Human V2 Receptor
The experiment to confirm the response of the test compounds to human V2 receptor was carried out using the cells prepared as described below in order to use this confirmation study to see the agonism of human V2 receptor of the test compounds.
The test compounds were dissolved in dimethylsulfoxide at 10 mM and solutions of the test compounds were prepared by 10-fold serial dilution with the Assay buffer (0.1% BSA, 20 mM HEPES/Hank's balanced salt solution, pH 7.4) at the concentration of 0.1 nM to 10 μM, which were used in this study.
Human V2 receptor couples with Gs protein, one of the G-coupling protein, and consequently produces cyclic adenosine 3′, 5′-monophosphate (cAMP) via adenylate cyclase. This cAMP produce can be substituted to intracellular increase of Ca^2+ with coexpressing Gqs, a chimeric protein, and human V2 receptor (Mol. Pharmacol., Vol. 50, pp. 885-890, 1996). The responses of the test compounds for human V2 receptor were quantified by measuring this intracellular Ca^2+. The changes of intracellular Ca^2+ after adding the test compounds at each concentration as mentioned above (0.1 nM to 10 μM) were measured with a FlexStation (Molecular Devices) using a FLIPR CALCIUM ASSAY KIT (Molecular Devices).
The intrinsic activities (IA) of the test compounds were calculated from the maximum response of the test compounds as that of AVP was considered to be 1. In case of a full agonist, the EC50 values of the test compounds were calculated as the maximum response of AVP was considered to be 100% and in the case of a partial agonist, EC50 values of test compounds were calculated as the maximum response of own test compounds were considered to be 100%. The concentration that achieved to 50% response of the maximum response in a concentration-response curve was considered as EC50 value. The values of EC50 obtained in this study were shown in Table 68 described below as indications of the agonism of human V2 receptor.
The Preparation of the Cells Using Confirmation Study of an Agonism of Human V2, Receptor (HEK293 Cells Coexpressed Human V2 Receptor and Gqs Chimeric Protein)
HEK293 cells (American Type Culture Collection) were incubated in the Eagle's Minimum Essential Medium (EMEM, Invitrogen) containing 1 mM sodium pyruvate, nonessential amino acids (0.1 mM), streptomycin (100 μg/mL), penicillin (100 U/mL), 10% fetal calf serum (Sanko chemicals) in an incubator with 5% CO2 at 37° C. The transfection was carried out by adding pCI-neo hV2 expression vector, expression vector inserted with the sequence coding Gqs chimeric protein (pLEC-Gqs5, LiveWare, Molecular Devices) and Lipofectamine2000 (Invitrogen), all diluted with OPTI-MEM I Reduced Serum Medium I (Invitrogen), to the cell suspension which was prepared from the confluent cells suspended with EMEM as mentioned above without antibiotics at 1×10^6 cells/mL. After the transfection, the cells (HEK293 cells coexpressed human V2 receptor and Gqs chimeric protein) were incubated in an incubator with 5% CO2 for two days and were used as cells for confirming agonism of human V2 receptor, and used for assessment of the test compounds. The expression plasmid vector of human V2 receptor represented as pCI-neo/hV2 above was constructed by the method as described below.
The Method of Construction of Human V2 Receptor Expression Plasmid Vector
cDNA library was obtained from reverse transcription of human kidney total RNA using SuperScript II RNase H-reverse transcriptase (Invitrogen) and oligo dT. The DNA fragment encoding human V2 receptor was amplified by the PCR method using the cDNA library as a template, primers used in combination of each forward primer (sequence no. 1-3 shown below) and each reverse primer (sequence no. 4-6 shown below) respectively and pfu DNA polymerase (Stratagene). This amplified DNA fragment and pCR-blunt kit (Invitrogen), a cloning plasmid vector, were ligated by a general method of the kit. […]

Row | Structure (SMILES) | Antidiuretic effect (decreasing rate of urine volume) ([1]; anesthetized male SD rats, against pre value) | Duration time ([1]; period until decreasing rate of urine volume restored to −20%) | (A value/B value) × 100 [2] | Dead [3] | Ki [4] | EC50 [5] | IA (intrinsic activity) [5]
1 | CCOC(=O)CN1Cc2ccccc2N(C(=O)c2ccc(N3CCCC3)cc2Cl)CC1=O [Example 1-7, ethyl [1-(2-chloro-4-pyrro-lidin-1-ylbenzoyl)-3-ox-o-1,2,3,5-tetra-hydrobenzo[e]-1,4-di-azepin-4-yl]acetate] | −68.6% ^ | 30 min | 89.9 | 0/3 | 0.0866 µM | 0.004 µM | 0.92
2 | Cc1nnc(CN2Cc3ccccc3N(C(=O)c3ccc(-n4cccn4)nc3)CC2=O)o1 [Example 1-29, 4-(5-methyl-1,3,4-oxadiazol-2-yl-methyl)-1-[6-(pyrazol-1-yl)py-ridine-3-carbonyl]-1,2,4,5-tetra-hydrobenzo[e]-1,4-di-azepin-3-one] | – | – | – | – | – | 0.05 µM | 0.93
3 | O=C(O)CN1Cc2ccccc2N(C(=O)c2ccc(OCC(F)(F)F)cc2Cl)CC1=O [Example 2-5, 1-[2-chloro-4-(2,2,2-trifluoroethoxy)-benzoyl]-3-oxo-1,2,3,5-tetrahydrobenzo[e]-1,4-diazepin-4-yl acetic acid] | – | – | – | – | 0.197 µM | 0.01 µM | –
4 | Cc1cnc(CN2Cc3ccccc3N(C(=O)c3ccc(OCCO)cc3Cl)CC2=O)o1 [Example 2-21, 1-[2-chloro-4-(2-hydroxyethoxy)benzoyl]-4-(5-methyloxazole-2-ylmethyl)-1,2,4,5-tetrahydrobenzo[e]-1,4-diazepin-3-one] | – | – | – | – | 0.322 µM | 0.006 µM | 1.09
5 | O=C1CN(C(=O)c2ccc(N3CCCC3)cc2Cl)c2ccccc2CN1Cc1nnn[nH]1 [Example 15, 1-(2-Chloro-4-pyrrolidin-1-ylbenzoyl)-4-(1H-tetrazol-5-ylmethyl)-1,2,4,5-tetrahydrobenzo[e]-1,4-diazepin-3-one] | – | – | – | – | 0.0977 µM | 0.001 µM | 1.09
6 | Cc1nnc(CN2Cc3ccccc3N(C(=O)c3ccc(OCCCO)nc3C)CC2=O)o1 [Example 31-8, 1-[6-(3-hydroxypropoxy)-2-methylpyridine-3-carbonyl]-4-(5-methyl-1,3,4-oxadiazol-2-ylmethyl)-1,2,4,5-tetrahydrobenzo[e]-1,4-diazepin-3-one] | – | – | – | – | – | 0.044 µM | 1.18
7 | O=C(O)CN1Cc2ccccc2N(C(=O)c2ccc(-c3ccccc3)cc2)CC1=O [Example 31-11, 1-(biphenyl-4-carbonyl)-3-oxo-1,2,3,5-tetrahydrobenzo[e]-1,4-diazepin-4-ylacetic acid] | – | – | – | – | 0.103 µM | 0.039 µM | 0.35
